Entries after “also recorded” stand apart in the source; their conditions may differ.
B1: Activin-A: an agonist of SMAD2.3 signaling (protein, UniProt P08476 311-426, looked up)
Inhibin beta A chain: GLECDGKVNICCKKQFFVSFKDIGWNDWIIAPSGYHANYCEGECPSHIAGTSGSSLSFHSTVINHYRMRGHSPFANLKSCCVPTKLRPMSMLYYDDGQNIIKKDIQNMIVEECGCS
modifications: Inhibin beta A chain
notes: an agonist of SMAD2.3 signaling
B2: BMP4: bone morphogenic protein-4, TGFβ superfamily member (protein, UniProt P12644 293-408, looked up)
Bone morphogenetic protein 4: SPKHHSQRARKKNKNCRRHSLYVDFSDVGWNDWIVAPPGYQAFYCHGDCPFPLADHLNSTNHAIVQTLVNSVNSSIPKACCVPTELSAISMLYLDEYDKVVLKNYQEMVVEGCGCR

Experiments:
Format in all cases: cell-based
human embryo-like model [1] = assay: Number of SOX17/NANOG/AP2γ triple-positive primordial germ cell-like cells in treated embryoids; details: Day 4 embryoids; vs control
Method: (§1) To generate the three-dimensional stem cell-derived model of the post-implantation embryo, RSeT cells between 2 and 6 passages post-conversion to RSeT media were passaged as normal. The media for extraembryonic-like cells (induced GATA6, induced GATA6-SOX17 or induced GATA3-AP2γ) was changed to N2B27 with 5% Knockout Serum Replacement and 1 μg/mL DOX on the following day (Day −3). This media was refreshed every 24 hours for 3 days. On Day 0 (the day of aggregation), an Aggrewell dish (34415, STEMCELL Technologies) was prepared by pre-coating with anti-adherence solution (07010, STEMCELL Technologies) and centrifuging at 2000 g for 5 minutes. Wells were washed twice with PBS prior to the addition of experiment media. This media consisted of N2B27 with 5% knockout serum replacement, 1 μg/mL doxycycline, and 10 μM Y-27632. Induced cells and wildtype ESCs were enzymatically dissociated 1 hour after addition of 10 μM Y-27632 to wells containing cells for inducible human embryoid generation. Dissociated cells were pelleted and resuspended in experiment media and placed in gelatin-coated wells for MEF depletion. After 15-30 minutes, cells were counted, mixed, and plated into an Aggrewell dish with a final calculation of 8 wildtype-ESC, 8 hypoblast-like, and 16 trophoblast-like cells plated per microwell in the Aggrewell. At 8 d.p.f., in vitro cultured human embryos had 32:24:228 epiblast:hypoblast:trophoblast cells. Importantly, however, many of the trophoblast cells were not in contact with the inner cell mass-derived tissues or were terminally differentiated. Additionally, inducible GATA6-SOX17 cells in culture proliferated slower than the other two cell populations after doxycycline addition. Therefore, an initial seeding density with: (1) a total cell number similar to that used in mouse models that allowed for successful cell sorting; (2) a ratio of cells that reflected the peri-implantation embryo; and (3) a reduced number of inducible GATA3-AP2γ cells and an increased number of inducible GATA6-SOX17 cells was utilized. […]

human embryo-like model [2] = assay: Differentiation of the inner epiblast-like domain (SOX2, CDX2, AP2a immunofluorescence) in treated human embryo-like model; details: treated between 48- and 96-hours post-aggregation; Day 4 and Day 6; compared to untreated control or BMP4 treated structures
Method: as §1, with “Aggrewell.” for “Aggrewell. At 8 d.p.f., in vitro cultured human embryos had 32:24:228 epiblast:hypoblast:trophoblast cells. Importantly, however, many of the trophoblast cells were not in contact with the inner cell mass-derived tissues or were terminally differentiated. Additionally, inducible GATA6-SOX17 cells in culture proliferated slower than the other two cell populations after doxycycline addition. Therefore, an initial seeding density with: (1) a total cell number similar to that used in mouse models that allowed for successful cell sorting; (2) a ratio of cells that reflected the peri-implantation embryo; and (3) a reduced number of inducible GATA3-AP2γ cells and an increased number of inducible GATA6-SOX17 cells was utilized.”

[3] = system: inducible human embryoids; assay: Formation of organized inducible human embryoids with BMP inhibitor added between days 0-2; details: added between days 0-2 post-aggregation; vs untreated control
Method: as §1, with “Aggrewell.” for “Aggrewell. At 8 d.p.f., in vitro cultured human embryos had 32:24:228 epiblast:hypoblast:trophoblast cells. Importantly, however, many of the trophoblast cells were not in contact with the inner cell mass-derived tissues or were terminally differentiated. Additionally, inducible GATA6-SOX17 cells in culture proliferated slower than the other two cell populations after doxycycline addition. Therefore, an initial seeding density with: (1) a total cell number similar to that used in mouse models that allowed for successful cell sorting; (2) a ratio of cells that reflected the peri-implantation embryo; and (3) a reduced number of inducible GATA3-AP2γ cells and an increased number of inducible GATA6-SOX17 cells was utilized.”

Row | Molecule | number of primordial germ cell-like cells (human embryo-like model [1]) | CDX2 and AP2a upregulation in the inner domain (human embryo-like model [2]) | SOX2 expression in the inner domain (human embryo-like model [2]) | formation of organized structures (embryoid formation) [3]
1 | c1ccc2c(-c3cnn4cc(-c5ccc(N6CCNCC6)cc5)cnc34)ccnc2c1 [LDN193189] | decreased | lesser CDX2 and AP2a upregulation | increased maintenance of SOX2 expression | blocked formation of organized structures; also recorded: failing to form
2 | B1 | minimal effect |  |  | 
3 | B2 | minimal effect |  |  | 

Reference: patent publication US20240101957A1, “METHODS AND COMPOSITIONS FOR GENERATING EMBRYOS IN VITRO FROM PLURIPOTENT STEM CELLS” (California Institute of Technology, priority 2022, published 2024)
